Data as given in patent publication US20230111914A1, “SYNTHETIC TRITERPENOIDS WITH NITROGEN-BASED SUBSTITUENTS AT C-17 AND METHODS OF USE THEREOF” (REATA PHARMACEUTICALS, INC., priority 2019, published 2023).
Several values for one entry are separate records, joined by “and”; a condition that tells them apart may be missing. Equal entries are not always repeated. Marks after values point to notes of the source that are not given here.

Columns and labels:
[1] = tested on: AREc32 reporter cell line (luciferase reporter under eight copies of the rat GSTA2 ARE sequence); assay: AREc32 luciferase reporter activation; type: cell-based, human; details: for EC (2-fold): Homo sapiens, Arec32, concentration that increases the luminescence signal 2-fold above vehicle, 19 h treatment, read-out: AREc32 EC2X (Mean ± SD)
[2] = tested on: IFNγ-induced NO production in RAW 264.7 cells; assay: Nitric oxide suppression assay (IFNγ-induced NO production, Griess nitrite readout); type: cell-based, mouse; details: for IC50: Mus musculus, RAW264.7, RAW 264.7 cells, 2 h pretreatment, 20 ng/mL interferon gamma 24 h, average of trials per footnote, read-out: NO IC50

| Structure (SMILES) | AREc32 EC2X Relative to RTA 402 (Mean ± SD) [1] | EC (2-fold) [1] | NO IC50 Rel. to RTA 402 [2] | IC50 [2] | times more active (NO IC50) than 63172 relative to RTA 402 [2] |
| --- | --- | --- | --- | --- | --- |
| COC(=O)[C@]12CCC(C)(C)C[C@H]1[C@H]1C(=O)C=C3[C@@]4(C)C=C(C#N)C(=O)C(C)(C)[C@@H]4CC[C@@]3(C)[C@]1(C)CC2 [RTA 402, reference compound] | 1.00 fold | 0.0118 ± 0.0029 µM | 1.00 ± 0.00 fold | 2.58 ± 1.19 nM |  |
| CNC(=O)NC[C@]12CCC(C)(C)C[C@H]1[C@H]1C(=O)C=C3[C@@]4(C)C=C(C#N)C(=O)C(C)(C)[C@@H]4CC[C@@]3(C)[C@]1(C)CC2 [Compound T8] | 0.2 ± 0.06^a fold | 0.0028 ± 4e-05 µM | 0.21 fold and 0.21 ± 0.05^d fold | 0.46 nM | roughly 37 times |
| CC1(C)CC[C@]2(N3CCCC3=O)CC[C@]3(C)[C@H](C(=O)C=C4[C@@]5(C)C=C(C#N)C(=O)C(C)(C)[C@@H]5CC[C@]43C)[C@@H]2C1 [Compound T24] | 3.8^e fold | 0.0379 µM | 2.17 ± 0.72^e fold | 3.6 ± 0.08 nM |  |
| CN1CCN([C@]23CCC(C)(C)C[C@H]2[C@H]2C(=O)C=C4[C@@]5(C)C=C(C#N)C(=O)C(C)(C)[C@@H]5CC[C@@]4(C)[C@]2(C)CC3)C1=O [Compound T31] | 4.3^e fold | 0.0455 µM | 3.13 ± 0.36^d fold | 12.6 ± 1.65 nM |  |
| CC1(C)CC[C@]2(N3CCC3=O)CC[C@]3(C)[C@H](C(=O)C=C4[C@@]5(C)C=C(C#N)C(=O)C(C)(C)[C@@H]5CC[C@]43C)[C@@H]2C1 [Compound T38] | 2.1^e fold | 0.0361 µM | 1.69 ± 0.84^e fold | 4.32 ± 3.51 nM |  |
| CN(C[C@]12CCC(C)(C)C[C@H]1[C@H]1C(=O)C=C3[C@@]4(C)C=C(C#N)C(=O)C(C)(C)[C@@H]4CC[C@@]3(C)[C@]1(C)CC2)C(=O)OC(C)(C)C [Compound T5] | 3.9 ± 0.36^a fold | 0.0425 ± 0.00947 µM | 6.04 ± 2.02^d fold | 14.2 ± 6.51 nM |  |
| CC(=O)N(C)C[C@]12CCC(C)(C)C[C@H]1[C@H]1C(=O)C=C3[C@@]4(C)C=C(C#N)C(=O)C(C)(C)[C@@H]4CC[C@@]3(C)[C@]1(C)CC2 [Compound T7] | 0.5 ± 0.14^a fold | 0.0068 ± 3e-05 µM | 0.49 ± 0.14^e fold | 0.84 ± 0.37 nM |  |
| CC1(C)CC[C@]2(CN3CC(F)C3)CC[C@]3(C)[C@H](C(=O)C=C4[C@@]5(C)C=C(C#N)C(=O)C(C)(C)[C@@H]5CC[C@]43C)[C@@H]2C1 [Compound T26] | 1.6^e fold | 0.0236 µM | 2.73 ± 1.01^e fold | 5.61 ± 1.84 nM |  |
| CC1(C)CC[C@]2(CNC(=O)OC(C)(C)C)CC[C@]3(C)[C@H](C(=O)C=C4[C@@]5(C)C=C(C#N)C(=O)C(C)(C)[C@@H]5CC[C@]43C)[C@@H]2C1 [CC1, reference compound] | 2.1 ± 0.00^a fold | 0.0211 ± 0.00475 µM | 2.06 ± 0.56^e fold | 5.04 ± 2.62 nM |  |
| CC1(C)CC[C@]2(CN3CCNC3=O)CC[C@]3(C)[C@H](C(=O)C=C4[C@@]5(C)C=C(C#N)C(=O)C(C)(C)[C@@H]5CC[C@]43C)[C@@H]2C1 [Compound T14] | 0.4^e fold | 0.00437 µM | 0.51 ± 0.09^e fold | 0.89 ± 0.08 nM |  |
| CC1(C)CC[C@]2(CN3CC(O)C3)CC[C@]3(C)[C@H](C(=O)C=C4[C@@]5(C)C=C(C#N)C(=O)C(C)(C)[C@@H]5CC[C@]43C)[C@@H]2C1 [Compound T28] | 0.9 ± 0.12^a fold | 0.0139 ± 0.00157 µM | 1.09 ± 0.16^e fold | 2.83 ± 0.92 nM |  |
| [2H]C([2H])([2H])C(=O)NC[C@]12CCC(C)(C)C[C@H]1[C@H]1C(=O)C=C3[C@@]4(C)C=C(C#N)C(=O)C(C)(C)[C@@H]4CC[C@@]3(C)[C@]1(C)CC2 [Compound T52] | 0.3^e fold | 0.003 µM | 0.28 ± 0.13^e fold | 0.52 ± 0.24 nM |  |
| C[C@@H]1C(=O)C(C#N)=C[C@]2(C)C3=CC(=O)[C@@H]4[C@@H]5CC(C)(C)CC[C@]5(CN5CCCC5=O)CC[C@@]4(C)[C@]3(C)CC[C@@H]12 [Compound T66] | 0.4^e fold | 0.0046 µM | 0.39 ± 0.09^e fold | 0.45 ± 0.09 nM |  |
| CC1(C)CC[C@]2(n3cccn3)CC[C@]3(C)[C@H](C(=O)C=C4[C@@]5(C)C=C(C#N)C(=O)C(C)(C)[C@@H]5CC[C@]43C)[C@@H]2C1 [Compound T32] | 2.8 ± 0.62^f fold | 0.0323 ± 0.00139 µM | 2.58 ± 0.60^e fold | 4.89 ± 1.42 nM |  |
